# Results as given in patent US10478406B2, “High-pH solid-state epinephrine formulation” (HARC Therapeutics AG, priority 2019, dated 2019).
# Test: Suspension assay testing: epinephrine dissolved in suspension
# Assay type: physicochemical
# Text: Sample numbers /1 and /2 were not acidic. To confirm that these samples produced solid state epinephrine rather than dissolved epinephrine, I had these samples assayed to determine whether the epinephrine had in fact dissolved into solution and if so, by what amount.
# Sample numbers /3 and /4 were basic pH. I thus had these samples assayed to determine whether the epinephrine dissolved into solution and if so, by what amount.
smiles,measurement,setting,value
"CNC[C@H](O)c1ccc(O)c(O)c1 [Epinephrine, 4-[(1 R)-1-Hydroxy-2-(methylamino)ethyl]-1,2-benzenediol]",total epinephrine that dissolves in water,basic pH 8.5,about 0.1%
same,total epinephrine that dissolves in water,"pH 7, without added acid",about 0.45%
